Measured values taken from patent publication US20100279957A1, “PREDICTING RESPONSIVENESS TO CANCER THERAPEUTICS” (priority 2007, published 2010).
Like-named read-outs stand apart in the source and are kept apart here.

Experiments:
[1] = test system: breast cancer, advanced ovarian cancer; assay: Clinical response to single agent chemotherapy in patients (breast neoadjuvant docetaxel; ovarian salvage docetaxel, topotecan, taxol; adriamycin treated patients); type: in vivo, human; conditions: Ovarian tumor data set; responders/patients
From the text: The development of a gene expression signature capable of predicting in vitro docetaxel sensitivity provides a tool that might be useful in predicting response to the drug in patients. We made use of published studies with clinical and genomic data that linked gene expression data with clinical response to docetaxel in a breast cancer neoadjuvant study^50 (FIG. 1D) to test the capacity of the in vitro docetaxel sensitivity predictor to accurately identify those patients that responded to docetaxel. […] We extended this further by predicting the response to docetaxel as salvage therapy for ovarian cancer.
Given the ability of the in vitro developed gene expression profiles to predict response to docetaxel in the clinical samples, we extended this approach to test the ability of additional signatures to predict response to commonly used salvage therapies for ovarian cancer and an independent data set of samples from adriamycin treated patients (Evans W, GSE650, GSE651). […] In each case, the positive and negative predictive values confirm the validity and clinical utility of the approach (Table 16).
Full details of the methods used for RNA extraction and development of gene expression signatures representing deregulation of oncogenic pathways in the tumor samples were recently described.^36 Response to therapy was evaluated using standard criteria for patients with measurable disease, based upon WHO guidelines.^28

[2] = test system: breast cancer, advanced ovarian cancer; conditions: responders/patients, cited from earlier work
[3] = test system: NCI-60 cell line panel; parameters: key: Sensitive; Resistant; conditions: cited from earlier work

Compound: CC[C@@]1(O)C(=O)OCc2c1cc1n(c2=O)Cc2cc3c(CN(C)C)c(O)ccc3nc2-1 [topotecan]
- Actual Overall Response [1]: 20/48 (41.6%)

Compound: CC(=O)O[C@H]1C(=O)[C@@]2(C)[C@H]([C@H](OC(=O)c3ccccc3)[C@]3(O)C[C@H](OC(=O)[C@H](O)[C@@H](NC(=O)c4ccccc4)c4ccccc4)C(C)=C1C3(C)C)[C@]1(OC(C)=O)CO[C@@H]1C[C@@H]2O [taxol, paclitaxel]
- Actual Overall Response [1]: 20/35 (57.1%)

Compound: CC(=O)O[C@@]12CO[C@@H]1C[C@H](O)[C@@]1(C)C(=O)[C@H](O)C3=C(C)[C@@H](OC(=O)[C@H](O)[C@@H](NC(=O)OC(C)(C)C)c4ccccc4)C[C@@](O)([C@@H](OC(=O)c4ccccc4)[C@H]21)C3(C)C [docetaxel]
- Actual Overall Response [1]: 7/14 (50%)
- Actual Overall Response ([2]; Breast Tumor Data, neoadjuvant (Chang et al.)): 13/24 (54.1%)

Compound: O=c1[nH]cc(F)c(=O)[nH]1 [5-FU, 5-fluorouracil]
- Resistant or Sensitive (Res or Sen) ([3]; A498, Renal): Sen
- Resistant or Sensitive (Res or Sen) ([3]; COLO 205, Colon): Sen
- Resistant or Sensitive (Res or Sen) ([3]; EKVX, Non-Small Cell Lung): Res
- Resistant or Sensitive (Res or Sen) ([3]; HCT-116, Colon): Sen
- Resistant or Sensitive (Res or Sen) ([3]; LOX IMVI, Melanoma): Sen
- Resistant or Sensitive (Res or Sen) ([3]; M14, Melanoma): Res
- Resistant or Sensitive (Res or Sen) ([3]; MCF7, Breast): Sen
- Resistant or Sensitive (Res or Sen) ([3]; MDA-MB-435, Melanoma): Res
- Resistant or Sensitive (Res or Sen) ([3]; NCI-H460, Non-Small Cell Lung): Sen
- Resistant or Sensitive (Res or Sen) ([3]; NCI/ADR-RES, Ovarian): Res
- Resistant or Sensitive (Res or Sen) ([3]; OVCAR-8, Ovarian): Res
- Resistant or Sensitive (Res or Sen) ([3]; SK-MEL-5, Melanoma): Sen
- Resistant or Sensitive (Res or Sen) ([3]; SN12C, Renal): Res
- Resistant or Sensitive (Res or Sen) ([3]; SW-620, Colon): Res
- Resistant or Sensitive (Res or Sen) ([3]; UO-31, Renal): Sen

Compound: COc1cccc2c1C(=O)c1c(O)c3c(c(O)c1C2=O)C[C@@](O)(C(=O)CO)C[C@@H]3O[C@H]1C[C@H](N)[C@H](O)[C@H](C)O1 [adriamycin]
- Actual Overall Response ([2]; Evans et al. patient data set): 24/122 (19.6%)
